In patent US20250345419A1, “TREATING CHEMORESISTANT CANCERS WITH NOTCH3 INHIBITORS” (Mayo Foundation for Medical Education and Research, priority 2022, published 2025):
Entries after “also recorded” stand apart in the source; their conditions may differ.

Key:
[1] = Toxicology studies, PTX with escalating doses of AV-353; format: in vivo, female NSG mice; details: PTX 10 mg/Kg, AV-353 100, 200, 400 ug
Protocol: FIG. 17 is a series of graphs plotting liver toxicity in mice treated with saline (CON), paclitaxel 10 mg/Kg (PTX), paclitaxel 10 mg/Kg+AV-353 100 ug (PTX+AV100), paclitaxel 10 mg/Kg+AV-353 200 ug (PTX+AV200), or paclitaxel 10 mg/Kg+AV-353 400 ug (PTX+AV400), based on measurements of liver function indicators: alanine aminotransferase (ALT), aspartate aminotransferase (AST), alkaline phosphatase (ALP), and total bilirubin (TBIL), as well as an indicator of kidney function (creatinine; CRE), and an indicator of general nutritional status (albumin; ALB). Blood samples (1 ml) were collected from animals, and liver enzyme analysis was carried out using a VETSCAN® instrument (Zoetis; Parsippany, NJ).
Toxicology studies: Female NSG mice received saline solution (control) or 10 mg/Kg paclitaxel (PTX) as monotherapy or in combination with escalating doses of AV-353 (AV100 ug, AV200 ug, and AV400 ug). PTX and AV-353 were administered intraperitoneally 3 times per week for 4 weeks. […] After drug treatment, animals were euthanized and organs of interest (liver and stomach) were paraffin embedded, sectioned, and hematoxylin and eosin stained. […] Although no liver damage was detected at the morphological or histological level, further studies were conducted to determine the extent to which the drug treatments induced an increase of liver enzymes. […]

[2] = test system: TNBC-M25 3D-MPS; experiment: TNBC-M25 mammosphere growth (area, Image-J); format: cell-based, human
Protocol: FIGS. 4A and 4B show NOTCH3 genetic targeting in TNBC-M25 mammospheres. FIG. 4A includes images of TNBCM25 single-cell dilutions grown under non-adherent conditions. After 48 hours of incubation, mammospheres were treated with 5 nM (½ IC50) or 10 nM (IC50) docetaxel (DTX) for 10 days. FIG. 4B is a graph plotting mammosphere area measured using the NIH Image-J software. Three independent experiments were performed in triplicate (±S.D.).
(§1) Mammospheres Formation: Human breast cancer cells were plated in ultra-low attachment 24-well and 96-well culture dishes in 100 μL of MAMMOCULT™ medium (STEMCELL™ Technologies; Vancouver, BC, Canada). Medium was added every 2 days for a maximum of 8 days. Mammospheres were trypsinized and expanded every 8 days to form tertiary mammospheres, and their growth was recorded through a digital camera (Nikon).
as §1, with “Mammosphere Formation:” for “Mammospheres Formation:”, “attachment 24-” for “attachment 24-well”, “(STEMCELL™ Technologies), and medium” for “(STEMCELL™ Technologies; Vancouver, BC, Canada). Medium”

[3] = test system: 3D-MPS derived from SUM149-PT cells; experiment: Real-time growth of RFP-tagged 3D-mammospheres (3D-MPS); format: cell-based, human; details: SUM149-PT 3D-MPS, AV-353 100 ng and/or DTX 5 nM, 96 hours
Protocol: FIGS. 7A and 7B show results from treatment of 3D-mammospheres (3D-MPS) of SM149-PT TNBC cells with AV-353 (½ IC50: 100 ng) and/or DTX (½ IC50: 5 nM). FIG. 7A includes representative images of RFP-tagged 3DMPS before and after treatment with AV-353 (½ IC50: 100 ng) and/or DTX (½ IC50: 5 nM) for 96 hours, using Annexin-V (red) as a marker of early apoptosis. FIG. 7B is a graph plotting real-time growth of RFP-tagged 3D-MPS before and after treatment with AV-353 (½ IC50: 100 ng) and/or DTX (½ IC50: 5 nM) for 96 hours. 3D-MPS growth was quantified using the INCUCYTE® Cell Player System. Three independent experiments were performed in triplicate (±S.D.).
as §1
Real-Time Cell Proliferation, Cytotoxicity and Apoptosis Assays: 5,000 cells were plated in Costar […] plates, treated with Docetaxel (DTX) and/or AV-353 (as monotherapy or in combination). Cell proliferation was monitored in real-time by GFP or RFP fluorescence intensity, and Red Annexin-V was used as an early marker of apoptosis. […]

CC(=O)O[C@H]1C(=O)[C@@]2(C)[C@H]([C@H](OC(=O)c3ccccc3)[C@]3(O)C[C@H](OC(=O)[C@H](O)[C@@H](NC(=O)c4ccccc4)c4ccccc4)C(C)=C1C3(C)C)[C@]1(OC(C)=O)CO[C@@H]1C[C@@H]2O [PTX, paclitaxel]
liver and stomach histology (H&E) ([1]; 3 times per week for 4 weeks): No significant damage; also recorded: no significant changes in the architecture of liver and stomach tissue
body weight ([1]; intraperitoneally 3 times per week for 4 weeks): did not induce body weight loss

CC(=O)O[C@@]12CO[C@@H]1C[C@H](O)[C@@]1(C)C(=O)[C@H](O)C3=C(C)[C@@H](OC(=O)[C@H](O)[C@@H](NC(=O)OC(C)(C)C)c4ccccc4)C[C@@](O)([C@@H](OC(=O)c4ccccc4)[C@H]21)C3(C)C [DTX, docetaxel]
IC50 ([2]; Homo sapiens, TNBC-M25 mammospheres): 10 nM
3D-MPS growth ([2]; TNBC-M25 3D-MPS): did not inhibit 3D MPS growth
mammosphere (3D-MPS) growth [3]: small effect on growth
